Source: PubChem BioAssay (NCI)
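Method: 48-hour compound exposure of cells in 96-well plates, five concentrations, linear interpolation of endpoints. GI50 marks 50% less growth. TGI is the concentration that stops growth completely.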

Columns and labels:
Experiment in all cases: NCI tumour cell line growth inhibition, 48 h
A549 NSCLC = tested on: A549 NSCLC
HT29 colon = tested on: HT29 colon
MALME-3M melanoma = tested on: MALME-3M melanoma
HCT-116 colon = tested on: HCT-116 colon
SN12C renal = tested on: SN12C renal
OVCAR-4 ovarian = tested on: OVCAR-4 ovarian
HS 578T breast = tested on: HS 578T breast
NCI-H460 lung = tested on: NCI-H460 lung
786-0 renal = tested on: 786-0 renal
LOX IMVI melanoma = tested on: LOX IMVI melanoma
HCC-2998 colon = tested on: HCC-2998 colon
OVCAR-3 ovarian = tested on: OVCAR-3 ovarian
RXF 393 renal = tested on: RXF 393 renal
UACC-257 melanoma = tested on: UACC-257 melanoma
DU-145 prostate = tested on: DU-145 prostate
CAKI-1 renal = tested on: CAKI-1 renal
SR leukemia = tested on: SR leukemia
M14 melanoma = tested on: M14 melanoma
NCI-H23 lung = tested on: NCI-H23 lung
U251 CNS = tested on: U251 CNS
T-47D breast = tested on: T-47D breast
SK-OV-3 ovarian = tested on: SK-OV-3 ovarian
OVCAR-5 ovarian = tested on: OVCAR-5 ovarian
SK-MEL-5 melanoma = tested on: SK-MEL-5 melanoma
HOP-62 NSCLC = tested on: HOP-62 NSCLC
MDA-MB-435 = tested on: MDA-MB-435
SW-620 colon = tested on: SW-620 colon
BT-549 breast = tested on: BT-549 breast
MCF7 breast = tested on: MCF7 breast
UACC-62 melanoma = tested on: UACC-62 melanoma
NCI/ADR-RES ovarian = tested on: NCI/ADR-RES ovarian
HCT-15 colon = tested on: HCT-15 colon
SNB-75 CNS = tested on: SNB-75 CNS
COLO 205 colon = tested on: COLO 205 colon
NCI-H226 lung = tested on: NCI-H226 lung
SK-MEL-2 melanoma = tested on: SK-MEL-2 melanoma
TK-10 renal = tested on: TK-10 renal
SK-MEL-28 melanoma = tested on: SK-MEL-28 melanoma
SF-268 CNS = tested on: SF-268 CNS
KM12 colon = tested on: KM12 colon
SF-295 CNS = tested on: SF-295 CNS
NCI-H522 lung = tested on: NCI-H522 lung
MOLT-4 leukemia = tested on: MOLT-4 leukemia
PC-3 prostate = tested on: PC-3 prostate
ACHN renal = tested on: ACHN renal
HL-60(TB) leukemia = tested on: HL-60(TB) leukemia
UO-31 renal = tested on: UO-31 renal
A498 renal = tested on: A498 renal
SF-539 CNS = tested on: SF-539 CNS
IGROV1 ovarian = tested on: IGROV1 ovarian
SNB-19 CNS = tested on: SNB-19 CNS
HOP-92 NSCLC = tested on: HOP-92 NSCLC
OVCAR-8 ovarian = tested on: OVCAR-8 ovarian
MDA-MB-231 breast = tested on: MDA-MB-231 breast
EKVX NSCLC = tested on: EKVX NSCLC
MDA-N = tested on: MDA-N

Nc1ccc(C2=CC(c3ccc(Cl)cc3)N3C=CSC3=N2)cc1 (configuration not stated)
GI50 (A549 NSCLC): 3.68 µM
TGI (A549 NSCLC): 53.4 µM
GI50 (HT29 colon): 2.79 µM
TGI (HT29 colon): 6.98 µM
GI50 (MALME-3M melanoma): 18.1 µM
TGI (MALME-3M melanoma): 47.8 µM
GI50 (HCT-116 colon): 1.66 µM
TGI (HCT-116 colon): 3.2 µM
GI50 (SN12C renal): 6.4 µM
TGI (SN12C renal): 26.9 µM
GI50 (OVCAR-4 ovarian): 13 µM
TGI (OVCAR-4 ovarian): > 100 µM
GI50 (HS 578T breast): 23.5 µM
TGI (HS 578T breast): > 100 µM
GI50 (NCI-H460 lung): 20.2 µM
TGI (NCI-H460 lung): > 100 µM
GI50 (786-0 renal): 6.74 µM
TGI (786-0 renal): 25.7 µM
GI50 (LOX IMVI melanoma): 2.34 µM
TGI (LOX IMVI melanoma): 5.65 µM
GI50 (HCC-2998 colon): 1.83 µM
TGI (HCC-2998 colon): 3.61 µM
GI50 (OVCAR-3 ovarian): 2.79 µM
TGI (OVCAR-3 ovarian): 7.43 µM
GI50 (RXF 393 renal): 2.03 µM
TGI (RXF 393 renal): 4.18 µM
GI50 (UACC-257 melanoma): 3.8 µM
TGI (UACC-257 melanoma): 17 µM
GI50 (DU-145 prostate): 5.11 µM
TGI (DU-145 prostate): 16.9 µM
GI50 (CAKI-1 renal): 23.1 µM
TGI (CAKI-1 renal): > 100 µM
GI50 (SR leukemia): 2.1 µM
TGI (SR leukemia): 5.51 µM
GI50 (M14 melanoma): 2.86 µM
TGI (M14 melanoma): 7.43 µM
GI50 (NCI-H23 lung): 17.8 µM
TGI (NCI-H23 lung): 46.8 µM
GI50 (U251 CNS): 2.94 µM
TGI (U251 CNS): 12.1 µM
GI50 (T-47D breast): 4.76 µM
TGI (T-47D breast): 27.7 µM
GI50 (SK-OV-3 ovarian): 5.07 µM
TGI (SK-OV-3 ovarian): 25.5 µM
GI50 (OVCAR-5 ovarian): 12.2 µM
TGI (OVCAR-5 ovarian): 34.7 µM
GI50 (SK-MEL-5 melanoma): 5.67 µM
TGI (SK-MEL-5 melanoma): 19.2 µM
GI50 (HOP-62 NSCLC): 4.38 µM
TGI (HOP-62 NSCLC): 16.4 µM
GI50 (MDA-MB-435): 2.43 µM
TGI (MDA-MB-435): 6.76 µM
GI50 (SW-620 colon): 2.07 µM
TGI (SW-620 colon): 4.51 µM
GI50 (BT-549 breast): 2.64 µM
TGI (BT-549 breast): 7 µM
GI50 (MCF7 breast): 1.22 µM
TGI (MCF7 breast): 4.52 µM
GI50 (UACC-62 melanoma): 4.4 µM
TGI (UACC-62 melanoma): 18.1 µM
GI50 (NCI/ADR-RES ovarian): 7.89 µM
TGI (NCI/ADR-RES ovarian): > 100 µM
GI50 (HCT-15 colon): 2 µM
TGI (HCT-15 colon): 5.63 µM
GI50 (SNB-75 CNS): 5.29 µM
TGI (SNB-75 CNS): 22.8 µM
GI50 (COLO 205 colon): 8.59 µM
TGI (COLO 205 colon): 20.6 µM
GI50 (NCI-H226 lung): 9.36 µM
TGI (NCI-H226 lung): > 100 µM
GI50 (SK-MEL-2 melanoma): 26.3 µM
TGI (SK-MEL-2 melanoma): 59.3 µM
GI50 (TK-10 renal): 11 µM
TGI (TK-10 renal): 28.5 µM
GI50 (SK-MEL-28 melanoma): 4.86 µM
TGI (SK-MEL-28 melanoma): 16.6 µM
GI50 (SF-268 CNS): 11.3 µM
TGI (SF-268 CNS): 30.7 µM
GI50 (KM12 colon): 1.95 µM
TGI (KM12 colon): 3.86 µM
GI50 (SF-295 CNS): 13.1 µM
TGI (SF-295 CNS): 40.4 µM
GI50 (NCI-H522 lung): 3.51 µM
TGI (NCI-H522 lung): 11.3 µM
GI50 (MOLT-4 leukemia): 4.03 µM
TGI (MOLT-4 leukemia): 89.7 µM
GI50 (PC-3 prostate): 8.8 µM
TGI (PC-3 prostate): > 100 µM
GI50 (ACHN renal): 2.02 µM
TGI (ACHN renal): 4.46 µM
GI50 (HL-60(TB) leukemia): 6.13 µM
TGI (HL-60(TB) leukemia): 53.5 µM
GI50 (UO-31 renal): 2.33 µM
TGI (UO-31 renal): 11 µM
GI50 (A498 renal): 6.17 µM
TGI (A498 renal): 23.8 µM
GI50 (SF-539 CNS): 1.84 µM
TGI (SF-539 CNS): 3.85 µM
GI50 (IGROV1 ovarian): 2.53 µM
TGI (IGROV1 ovarian): 6.69 µM
GI50 (SNB-19 CNS): 11.8 µM
TGI (SNB-19 CNS): 29 µM
GI50 (HOP-92 NSCLC): 17.7 µM
TGI (HOP-92 NSCLC): 72.4 µM
GI50 (OVCAR-8 ovarian): 4.16 µM
TGI (OVCAR-8 ovarian): 48.1 µM
GI50 (MDA-MB-231 breast): 4.76 µM
TGI (MDA-MB-231 breast): 46.9 µM

CN(CCNC(=O)c1cn(C)c2c1ccc1cc(Cl)c(Cl)cc12)CCNC(=O)c1cn(C)c2c1ccc1cc(Cl)c(Cl)cc12
TGI (HT29 colon): 3.41 µM
TGI (MALME-3M melanoma): 24.2 µM
TGI (EKVX NSCLC): 10.9 µM
TGI (HCT-116 colon): 3.2 µM
TGI (MDA-N): 3.25 µM
TGI (OVCAR-4 ovarian): 5.67 µM
TGI (786-0 renal): 3.28 µM
TGI (DU-145 prostate): 3.43 µM
TGI (CAKI-1 renal): > 100 µM
TGI (NCI-H23 lung): 22 µM
TGI (U251 CNS): 3.19 µM
TGI (SK-OV-3 ovarian): 4.59 µM
TGI (OVCAR-5 ovarian): 9.98 µM
TGI (SK-MEL-5 melanoma): 35.2 µM
TGI (BT-549 breast): > 75.2 µM
TGI (UACC-62 melanoma): 4.88 µM
TGI (NCI/ADR-RES ovarian): > 100 µM
TGI (NCI-H226 lung): 96 µM
TGI (TK-10 renal): > 100 µM
TGI (SF-268 CNS): 15.5 µM
TGI (SF-295 CNS): 6.2 µM
TGI (MOLT-4 leukemia): 0.36 µM
TGI (PC-3 prostate): 3.26 µM
TGI (ACHN renal): 3.73 µM
TGI (HL-60(TB) leukemia): 4.23 µM
TGI (A498 renal): 63.2 µM
TGI (SF-539 CNS): 16 µM
TGI (HOP-92 NSCLC): 12.1 µM
TGI (MDA-MB-231 breast): 3.25 µM
